Experiments:
[1] = Pharmacokinetic test in Beagle dogs, oral capsules; assay type: in vivo; conditions: 5 mg/kg oral
Protocol: The crystal form A of compound having Formula (I) named 2-((5-cyclopropyl-3-(2,6-dichlorophenyl)isoxazol-4-yl)methoxy)-10H-spiro[benzo[6,7]oxepino[3,2-b]pyridine-11,1′-cyclopropane]-7-carboxylic acid was filled into capsules, which was for oral administration.
8-12 kg Male Beagle dogs were given 5 mg/kg test sample orally, with 3 animals in each group. Blood samples were taken at time points of 0.25, 0.5, 1.0, 2.0, 4.0, 6.0, 8.0, 12 and 24 h. Standard curve was plotted based on concentrations of the samples in a suitable range, the concentration of the test sample in the plasma sample was measured and quantified by AB SCIEX API4000 LC-MS/MS at MRM mode. Pharmacokinetic parameters were calculated according to drug concentration-time curve using a noncompartmental model by WinNonLin 6.3 software.

[2] = Stability test: high-temperature test (60° C.); assay type: physicochemical; conditions: for Purity (%): HPLC
Protocol: (§1) (1) High-temperature test: A batch of the test sample was taken into a flat weighing bottle, divided into ≤5 mm thick thin layer. The sample was placed at 60° C. for 30 days. The sample was then sampled at day 5, day 10 and day 30, and the change of the sample's color was observed. The purity of the sample was detected by HPLC, and the structure of the sample was analyzed by X-ray powder diffraction, the change of X-ray powder diffraction in high temperature test was […] as shown in FIG. 4.

[3] = Stability test: high-humidity test (25° C., RH 90%±5%); assay type: physicochemical; conditions: for Appearance / Purity (%): High-humidity 25° C., RH 90%±5%; for Purity (%): HPLC
Protocol: as §1, with “(2) High-humidity” for “(1) High-temperature”, “25° C., RH 90%±5%” for “60° C.”, “humidity” for “temperature”, “5.” for “4.”

[4] = Stability test: light test (4500±500lx, UV); assay type: physicochemical; conditions: for Appearance / Purity (%): Light 4500±500lx, UV; for Purity (%): HPLC
Protocol: as §1, with “(3) Light” for “(1) High-temperature”, “placed in an opened light box (with UV)” for “placed”, “the illuminance 4500±500lx, UV light ≥0.7 w/m^2” for “60° C.”, “13” for “10”, “light” for “high temperature”, “6.” for “4.”

[5] = Hygroscopicity test by dynamic moisture adsorption (DVS); assay type: physicochemical; conditions: relative humidity of 80%
Protocol: The description of the hygroscopic feature and the definition of the hygroscopic weight gain (Chinese Pharmacopoeia 2015 edition, Appendix 9103 Guidelines for Drug Hygroscopicity Tests, experimental conditions: 25° C.±1° C., 80%±2% relative humidity) are as described in the table below.
An appropriate amount of the test sample was taken and the hygroscopicity of the test sample was tested by dynamic moisture adsorption device. […] That is, the crystal form A of the invention is not easily deliquescent under the influence of high humidity.

[6] = dog, plasma, male Beagle dogs, capsules
[7] = High-temperature 60° C., 5 days
[8] = High-temperature 60° C., 10 days
[9] = High-temperature 60° C., 30 days

- exposure in Beagle dogs ([1]; conclusion in words): relatively large exposure
- AUC(0-t) [1, 6]: 237 ng·h/mL
- Cmax [1, 6]: 86 ng/mL
- Tmax ([1]; male Beagle dogs, capsules): 40 min
- Appearance ([2]; 0 days (initial sample)): White
- Purity (%) ([2]; 0 days (initial sample)): 99.44%
- Appearance [2, 7]: White
- Purity (%) [2, 7]: 99.33%
- Appearance [2, 8]: White
- Purity (%) [2, 8]: 99.35%
- Appearance [2, 9]: White
- Purity (%) [2, 9]: 99.45%
- changes of appearance, chemical purity and crystal form ([2]; high-temperature, up to 30 days): no obvious changes
- Appearance ([3]; 5 days): White
- Purity (%) ([3]; 5 days): 99.55%
- Appearance ([3]; 10 days): White
- Purity (%) ([3]; 10 days): 99.39%
- Appearance ([3]; 30 days): White
- Purity (%) ([3]; 30 days): 99.42%
- changes of appearance, chemical purity and crystal form ([3]; high-humidity, up to 30 days): no obvious changes
- Appearance ([4]; 5 days): White
- Purity (%) ([4]; 5 days): 99.53%
- Appearance ([4]; 13 days): White
- Purity (%) ([4]; 13 days): 99.31%
- Appearance ([4]; 30 days): White
- Purity (%) ([4]; 30 days): 99.43%
- changes of appearance, chemical purity and crystal form ([4]; light, up to 30 days): no obvious changes
- hygroscopic feature according to the criterion for the hygroscopic weight gain [5]: no or almost none hygroscopicity
- weight gain after equilibrium [5]: less than 0.1%
Structure (SMILES): O=C(O)c1ccc2c(c1)Oc1ccc(OCc3c(-c4c(Cl)cccc4Cl)noc3C3CC3)nc1C1(CC1)C2 [Crystal form A, 2-((5-cyclopropyl-3-(2,6-dichlorophenyl)isoxazol-4-yl)methoxy)-10H-spiro[benzo[6,7]oxepino[3,2-b]pyridine-11,1′-cyclopropane]-7-carboxylic acid]

Source: US12492211B2, “Crystalline form of nitrogen-containing tricyclic compound and use thereof” (SUNSHINE LAKE PHARMA CO., LTD., priority 2019, dated 2025)
